Literature values as cited in paper PMC10526633 (Structure (London, England : 1993), 2023).

Tests used:
[1] = test system: SKBr3 cells; settings: highest tested concentration of 20 μM
[2] = test system: HER2 signaling; settings: highest tested concentration of 20 μM
[3] = test system: N62Q mutant cells; settings: N62Q GRP94 mutant cells
[4] = test system: GRP94

SMILES | Cytotoxicity in SKBr3 cells [1] | Effect on HER2 signaling in SKBr3 cells [2] | Sensitivity of N62Q mutant cells to ligand [3] | Effect of limited sugar removal on ligand binding to GRP94 ([4]; EndoH, retains N-acetylglucosamine attached to Asn, ref Yan et al. cell Reports 2020) | Effect of N217A mutation on ligand binding ([4]; N217A mutant of GRP94) | Effect of complete deglycosylation on GRP94 binding to ligand ([4]; PNGase F, ref Yan et al. cell Reports 2020)
COC(=O)c1c(O)cc(O)c(Cl)c1CCc1nccn1Cc1ccccc1 [BnIm, methyl 2-(2-(1-benzyl-1H-imidazol-2-yl)ethyl)-3-chloro-4,6-dihydroxybenzoate] | no cytotoxicity | no effect |  |  |  | 
CC(C)NCCCn1c(Sc2cc(Cl)cc(Cl)c2)nc2c(N)ncnc21 [PU-WS13] |  |  | insensitivity | partially reduces | no effect | abolishes
